The record followed here is patent US6335339B1, “Triazine antiviral compounds” (Scriptgen Pharmaceuticals, Inc., priority 1998, dated 2002).

The subject of experiment [1] is HBV. The experiment in a line: antiviral assay in 2.2.15 cells producing HBV (virion DNA dot blot). The class given is cell-based, Hepatitis B virus. In short, it runs like this: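 2.2.15 cells (integrated HBV genome) were treated daily with compound at 4 concentrations for 9 days; medium harvested 24 h later and virion DNA quantified by dot-blot hybridization. EC50/EC90 are µM concentrations reducing extracellular virus by 50%/90%; cytotoxicity by neutral red uptake, CC50 as 50% cell death.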

In experiment [2] the test system is HIV derived RRE RNA. The experiment in a line: heterologous hybridization inhibition assay with RRE RNA. The class given is binding. To be noted: radiolabeled RRE RNA, rRNA competitor.
Where [3] appears, read: extra-cellular virus reduced by 50%, 2.2.15 cells, 9 days treatment, read-out: Antiviral EC50.

SMILES strings stand for the structures. Like-named read-outs stand apart in the source and are kept apart here.

A word on the EC50: it is the concentration needed to bring the measured effect to its halfway point. In the case of `C(=NNc1nc(Nc2ccccc2)nc(N2CCCCC2)n1)c1ccccc1` [Compound 3], in experiment [1] (setting [3]), the concentration giving a half-maximal response (EC50) is 4.8 µM. Moreover, the “RRE + rRNA IC50 (μM)” value in experiment [2] was “inactive”.
In the same order, the values of `Cc1[nH]c2ccccc2c1C=NNc1nc(Nc2ccccc2)nc(N2CCOCC2)n1` [Compound 4] are 3.4 µM and “inactive”.
As for `FC(F)(F)c1cccc(Nc2nc(Nc3cccc(Br)c3)nc(N3CCOCC3)n2)c1` [Compound 38], in experiment [1] (setting [3]), the EC50 turned out to be 0.592 µM. In addition, the “RRE + rRNA IC50 (μM)” value in experiment [2] is “inactive”.
In the case of `CCCCN(CCCC)c1nc(NN=Cc2c[nH]c3ccccc23)nc(Nc2ccc([N+](=O)[O-])cc2)n1` [Compound 39], the EC50 in experiment [1] (setting [3]) is 1 µM. The “RRE + rRNA IC50 (μM)” value in experiment [2] is “inactive”.
As to `Cc1ccc(Nc2nc(NN=Cc3ccc(Cl)c(Cl)c3)nc(Nc3ccccc3)n2)c(C)c1` [Compound 40], the EC50 in experiment [1] (setting [3]) amounted to 30 µM. Further, the “RRE + rRNA IC50 (μM)” value in experiment [2] is “inactive”.
For `O=[N+]([O-])c1ccc(Nc2nc(N/N=C/c3cccc(Cl)c3)nc(N3CCCCC3)n2)cc1` [Compound 41] the same measures were 36 µM and “inactive”.
With `Cc1ccc(Nc2nc(NN=Cc3ccc(Cl)cc3)nc(Nc3ccccc3)n2)c(C)c1` [Compound 42], the EC50 in experiment [1] (setting [3]) is 6.1 µM. Also, the “RRE + rRNA IC50 (μM)” value in experiment [2] was “inactive”.
For `Brc1cc2c(cc1C=NNc1nc(NCc3ccccc3)nc(Nc3ccccc3)n1)OCO2` [Compound 43], the EC50 in experiment [1] (setting [3]) came out at 0.841 µM. Besides, the “RRE + rRNA IC50 (μM)” value in experiment [2] is “inactive”.
In the same order, the values of `COc1ccc(C=NNc2nc(Nc3ccc([N+](=O)[O-])cc3)nc(N3CCCCC3)n2)cc1` [Compound 44] are 4.8 µM and “inactive”.
Consider `O=[N+]([O-])c1ccc(C=NNc2nc(Nc3ccccc3)nc(NC3CCCCC3)n2)cc1` [Compound 46], for which, in experiment [1] (setting [3]), the EC50 is greater than 100 µM. Besides, the “RRE + rRNA IC50 (μM)” value in experiment [2] was “inactive”.
As to `Cc1ccc(Nc2nc(NN=Cc3cccc(Br)c3)nc(Nc3ccccc3)n2)c(C)c1` [Compound 49], the EC50 in experiment [1] (setting [3]) is 1.2 µM. Also, the “RRE + rRNA IC50 (μM)” value in experiment [2] was “inactive”.
With `Cc1[nH]c2ccccc2c1C=NNc1nc(NCc2ccccc2)nc(Nc2ccccc2)n1` [Compound 50], the EC50 in experiment [1] (setting [3]) was 29 µM. Besides, the “RRE + rRNA IC50 (μM)” value in experiment [2] was “inactive”.
In the same order, the values of `Cc1ccc(Nc2nc(NN=Cc3ccc4c(c3)OCO4)nc(Nc3ccccc3)n2)c(C)c1` [Compound 51] are 15 µM and “inactive”.
In the same order, the values of `O=[N+]([O-])c1cc(C=NNc2nc(Nc3ccccc3)nc(N3CCOCC3)n2)ccc1Cl` [Compound 52] are 4.5 µM and “inactive”.
With `Oc1ccc(Nc2nc(Nc3cccc(C(F)(F)F)c3)nc(N3CCOCC3)n2)cc1` [Compound 53], in experiment [1] (setting [3]), the EC50 came to 1.2 µM. In addition, the “RRE + rRNA IC50 (μM)” value in experiment [2] is “inactive”.
Take `CC(C)c1ccc(C=NNc2nc(Nc3ccc([N+](=O)[O-])cc3)nc(N3CCCCCC3)n2)cc1` [Compound 56]: the EC50 in experiment [1] (setting [3]) is greater than 100 µM. In addition, the “RRE + rRNA IC50 (μM)” value in experiment [2] is “inactive”.
Consider `COc1ccc(C=NNc2nc(Nc3ccccc3)nc(Nc3ccc(C)cc3C)n2)c(OC)c1` [Compound 61], for which the EC50 in experiment [1] (setting [3]) came to 3.7 µM. In addition, the “RRE + rRNA IC50 (μM)” value in experiment [2] was “inactive”.
Turning to `CC(C)c1ccc(C=NNc2nc(Nc3ccc([N+](=O)[O-])cc3)nc(N3CCCCC3)n2)cc1` [Compound 62], the concentration for a half-maximal effect (EC50) in experiment [1] (setting [3]) is greater than 100 µM. In addition, the “RRE + rRNA IC50 (μM)” value in experiment [2] was “inactive”.
For `CCN(CC)c1nc(N/N=C/c2ccc([N+](=O)[O-])cc2)nc(Nc2cc(C)ccc2C)n1` [Compound 63] the same measures were greater than 100 µM and “inactive”.
Regarding `CNc1nc(NN=Cc2ccccc2[N+](=O)[O-])nc(Nc2ccccc2)n1` [Compound 65], the EC50 in experiment [1] (setting [3]) was greater than 100 µM. Further, the “RRE + rRNA IC50 (μM)” value in experiment [2] is “inactive”.
Regarding `CC(C)(C)Nc1nc(NCc2ccccc2)nc(NN=Cc2ccc3c(c2)OCO3)n1` [Compound 67], the EC50 in experiment [1] (setting [3]) was greater than 100 µM. For the same compound, the “RRE + rRNA IC50 (μM)” value in experiment [2] is “inactive”.
With `CCN(CC)c1nc(NN=Cc2ccc(F)cc2)nc(Nc2ccc([N+](=O)[O-])cc2)n1` [Compound 68], the concentration for a half-maximal effect (EC50) in experiment [1] (setting [3]) is greater than 100 µM. Moreover, the “RRE + rRNA IC50 (μM)” value in experiment [2] was “inactive”.
Take `CCCCN(CCCC)c1nc(NN=C(C)c2ccccc2)nc(Nc2ccc([N+](=O)[O-])cc2)n1` [Compound 74]: the half-maximal effective concentration (EC50) in experiment [1] (setting [3]) was greater than 100 µM. In addition, the “RRE + rRNA IC50 (μM)” value in experiment [2] was “inactive”.
In the same order, the values of `CCN(CC)c1nc(NN=Cc2cc([N+](=O)[O-])ccc2OC)nc(Nc2cc(C)ccc2C)n1` [Compound 85] are greater than 100 µM and “inactive”.
In general, IC50 refers to the midpoint of a concentration-inhibition curve. On to `Cc1[nH]c2ccccc2c1C=NNc1nc(Nc2ccccc2)nc(N2CCCCC2)n1` [Compound 88], for which the EC50 in experiment [1] (setting [3]) came to 4.8 µM. In experiment [2], the concentration for half-maximal inhibition (IC50) is 938 µM.
In the same order, the values of `C(=Cc1ccccc1)C=NNc1nc(NCc2ccccc2)nc(Nc2ccccc2)n1` [Compound 91] are greater than 100 µM and 800 µM.
As to `CC(C)(C)Nc1nc(NCc2ccccc2)nc(N/N=C/c2ccccc2F)n1` [Compound 93, 2-fluorobenzaldehyde N-[4-(benzylamino)-6-(tert-butylamino)-1,3,5-triazin-2-yl]hydrazone], the concentration for a half-maximal effect (EC50) came out at 0.503 µM in experiment [1] (Hepatitis B virus, 216 h, read-out: Antiviral EC50 (μM)) and 0.006 µM in experiment [1] (Hepatitis B virus, 216 h, extra-cellular virus reduced by 50%, 2.2.15 cells, 9 days treatment, read-out: Antiviral EC50). Further, the “RRE + rRNA IC50 (μM)” value in experiment [2] is on record as “Inactive”.
Turning to `COc1ccccc1C=NNc1nc(Nc2ccc([N+](=O)[O-])cc2)nc(Nc2ccc(C)c(C)c2)n1` [Compound 94], the EC50 in experiment [1] (setting [3]) is greater than 100 µM. Also, the IC50 in experiment [2] amounted to 250 µM.
